This is an account of results in patent publication US20190002492A1, “DERIVATIVES OF ALLOPR[…] OF EPIALLOPR[…] USES THEREOF FOR TREATING A NEUROPATHOLOGICAL CONDITION” (UNIVERSITE DE STRASBOURG, priority 2011, published 2019).

Molecules are shown by their SMILES. “Also recorded” adds a separate entry of the source. Counter-ions that a name gives are not always drawn.

In series [1] the test system is SH-SY5Y human neuroblastomas. The experiment in a line: MTT assay of cell viability and density: effect on cell proliferation. Format: cell-based. Further details: key to Effect on cell proliferation (neural proliferative effect): −: no effect; +: low effect; ++: high effect; +++: very high effect. The settings on record: SH-SY5Y cultures. Here is the method:
(§1) The cellular model used to carry out the in vitro experiments is a line of human neuroblastomas called line SH-SY5Y.
(§2) The human neuroblastoma is a cultivated at 37° C. in a humidity saturated atmosphere, under 5% CO2 in a culture medium formed by DMEM with an added 10% (v/v) fetal calf serum, 5% (v/v) horse serum, 2 mM glutamax and 1% (v/v) of the penicillin/streptomycin mixture.
The cellular viability and the density (or number of SH-SY5Y cells/cm^2) were determined using the MTT reduction assay. The MTT technique is a colorimetric test that measures the reduction of the tetrazolium salt (3-[4,5-dimethylthiazol-2-yl]-2,5-diphenyl tetrazolium bromide) in formazan by the succinate dehydrogenase present in the mitochondria of the living cells. The formazan forms blue crystals. Thus, after solubilization of the crystals, the measurement of the absorbance at 595 nm makes it possible to obtain absorbency values directly proportional to the number of viable cells and the cell density in the culture boxes.
The effects of derivatives BR053, BR338, BR297 and BR351 on cell proliferation were evaluated by comparing the number of viable cells and the cell density in the control culture boxes, treated only with the culture medium described in paragraph A1 above, and the culture boxes exposed to the culture medium with the added BR053, BR338, BR297 or BR351 derivatives.
A general note: Formazan colour is commonly taken as a measure of viable cells.

For series [2], the system named is SH-SY5Y human neuroblastomas. Put plainly: Neuroprotection against cell death caused by oxidizing stress (H2O2), MTT readout. The format is cell-based. Also on record: key to Neuroprotective effect against cell death caused by oxidizing stress: −: no effect; +: low effect; ++: high effect; +++: very high effect. The note with it: H2O2 1 mM; for Neuroprotective effect against cell death caused by oxidizing stress: SH-SY5Y cultures, 24 or 48 hours, MTT; for Protection of human neuroblastomas from cell death caused by H2O2 (in words): SH-SY5Y. The procedure:
as §1, §2
The human neuroblastomas were incubated with the culture medium alone or containing the chief inducing agent of oxidizing stress, hydrogen peroxide (H2O2), at various concentrations in order to determine the concentrations of H2O2 and the incubation times causing the death of a significant percentage of the cells. The neuroprotective properties of the BR053, BR338, BR297 and BR351 derivatives were determined by pretreating the SH-SY5Y cells with the culture medium alone or respectively containing the BR053, BR338, BR297 or BR351 derivative. After pretreatment, each of these categories of cells was integrated for 24 hours or 48 hours with the following solutions: (i) culture medium; (ii) culture medium containing only the BR053, BR338, BR297 or BR351 derivative; (iii) culture medium containing only H2O2 at a concentration of 1 mM, which causes a high percentage of cell death; (iv) culture medium containing both H2O2 (1 mM) and one of the BR053, BR338, BR297 or BR351 derivatives.
10 μl of a stock solution of tetrazolium, abbreviated MTT, at 3.6 mM was added in each well and the incubation continued in darkness for 5 h at 37° C. After cell lysis, spectrophotometer measurements at 595 nm were carried out to determine the survival and cell density under each of the conditions described above.

For series [3], the system named is type A GABA channel receptors (GABAa-R). Put plainly: Whole-cell patch-clamp, effect on GABA-induced ionic current. Format: cell-based, human. The settings on record: 0.25 μM compound, GABA 10 μM in the recording pipette; for Effect on the type A GABA receptor channel or GABAa-R: whole cell patch-clamp. The procedure:
The studies were conducted using an electrophysiological approach. The activity of the cells was recorded using the patch-clamp technique in its so-called whole cell configuration. The mediums used for the recordings have the following composition (in mM): NaCl ([…]), KCl (2), CaCl2 (1), MgCl2 (2), HEPES (10) for the medium bathing the cells and NaCl (132), KCl (2), CaCl2 (1), MgCl2 (2), TEA (15), HEPES (10) for the recording pipette, the pH was adjusted in both cases to 7.4 with NaOH. The GABA 10 μM was added into the recording pipette.
After producing a “gigaseal” (Planar patch clamp) between the cellular membrane and the tip of a pipette with an electrical resistance comprised between 4 and 7 MO, the ionic currents were measured using a patch-clamp amplifier (Axopatch B200, Axon Instruments, CA). The acquisition of the signal (acquisition frequency of 10 kHz) was done using an interface card (Digidata 1322A, Axon Instruments, CA) and the pClamp 8 software (Axons Instruments, CA).
The allopregnanolone and the BR053, BR338, BR297 and BR351 derivatives were solubilized in pure ethanol before being diluted in the medium to the desired concentration. The dilution factor was at least equal to 2×10^4, which makes the final concentration of ethanol in the recording solution remain below […] (a concentration not affecting the activity of the GABAa receptor).
Depending on the experiments, the allopregnanolone or the BR053, BR338, BR297 or BR351 derivatives, at the concentration of 0.25 μM, were either added in the recording pipette at the same time as the GABA, or applied to the cell by perfusion.
The application was done by gravity through a multi-path perfusion system made up of glass tubes each having an inner diameter of 1 mm. The selected path was placed across from the recorded cell at approximately 100 μm. The solution was changed by calibrated rotation of the tubes using a stepping motor thus placing the new selected path across from the cell. Synchronously with that rotation, the solenoid valve controlling the flow of the selected path was also opened and the preceding one closed.
For orientation: In patch-clamp work, channel activity is measured electrically.

Series [4] relates to Sprague-Dawley rats. The experiment in a line: Von Frey filament test, painful neuropathy caused by vincristine. Format: in vivo, rat. The source says:
(§3) Adult male Sprague-Dawley rats weighing between 250 and 300 g were used. They came from the company Janvier (le Genest St. Isle, France). The care and handling of the animals were done in accordance with the guidelines from the Council of the European Community (86/609/EC) and in accordance with the ethical rules of the International Association for the Study of Pain. The protocol used to carry out the in vivo studies was subject to examination and authorization granted to Prof. Mensah-Nyagan's team by the Alsatian Department of the Veterinary Public Health Guide for the Care and Use of Laboratory Animals (Approval number 67-186). The rats were housed under standard conditions with a photoperiod of 12 h day/12 h night, with unlimited food and water. The animals spent one acclimatization week before being integrated into the experimental protocols. Each animal was examined daily to detect any signs of deterioration of its health condition, such as dramatic weight loss, a decrease in appetite during chemotherapy and pharmacological treatment.
(§4) Vincristine sulfate (VINC), purchased from Sigma-Aldrich (St. Louis, Mo., USA), was dissolved in a physiological saline solution (NaCl 0.9%) at 0.1 mg/ml and stored at 4° C. The saline solution (NaCl 0.9%) is used as excipient. The VINC is injected daily by intraperitoneal injection (i.p.), in 2 cycles of 5 days separated by 2 days off, at a concentration of 0.1 mg/kg/day. The control animals were injected by i.p. (1 ml/kg) with the excipient using a similar protocol.
(§5) The allopregnanolone in the derivatives according to the invention (BR053 and BR297) were diluted in a hydroxypropylcellulose (HPC) solution (0.3%) used as excipient. The curative treatment with allopregnanolone, BR053 or BR297 began 3 days after the vincristine cycles. Each of these compounds (allopregnanolone, BR053 or BR297) was administered by the intraperitoneal route at a dose of 4 mg/kg at a rate of one injection every 2 days. Thus, over the total duration of the in vivo experiments (14 days), each animal received 7 injections of excipient, allopregnanolone, BR053 or BR297, based on its group, at a dose of 4 mg/kg. The animals were sacrificed 24 hours after the last behavioral test (28th day) to remove tissues that will be used for later histology and electrophysiology studies.
(§6) The mechanical nociceptive sensitivity threshold was evaluated in rats placed in individual Plexiglas boxes (30×30×25 cm) mounted on a raised mesh support thereby allowing access to the surface or arch of the back feet. The presence of allodynia (exaggerated response following a normally […] stimulation) was measured using a series of calibrated von Frey filaments (1, 2, 4, 6, 8, 10, 15, 26, 100, 180 and 300 g; Stoelting, Wood Dale, Ill., USA), which were applied on the sole of the back foot of the animal with increasing force until the filament twisted. The filament was applied for a period of 1 to 2 seconds and the procedure was repeated 5 times at 4-5 second intervals. The withdrawal threshold of the foot was calculated by taking the average of […] repeated stimuli (in grams) that caused a reflex to withdraw the foot. Only vigorous and fast withdrawals of the foot were considered positive. In the experiments, the naïve animals never responded to the 4 g filament and responded 25-30% of the time to the 15 g filament.

In series [5] the test system is Sprague-Dawley rats. Put plainly: Acetone test of thermal allodynia to cold, painful neuropathy caused by vincristine. Format: in vivo, rat.
From the text: as §3, §4, §5
The thermal nociceptive sensitivity threshold to cold was measured in rats placed in individual Plexiglas boxes (30×30×25 cm) mounted on a raised mesh support so as to allow access to the sole of the animal's foot. […] Six measurements (3 per foot) were performed with a latency of 5 minutes between each stimulation. The average latency for withdrawal of the feet (in seconds) was calculated by averaging 6 measurements at each studied point in time. […]

In series [6] the test system is Sprague-Dawley rats. Put plainly: Von Frey mechanical nociceptive sensitivity threshold in healthy animals not treated with vincristine. The format is in vivo, rat. The note with it: 4 mg/kg every 2 days for 2 weeks.
From the text: as §3, §5
as §6, with “In the experiments, the naïve animals never responded to the 4 g filament and responded 25-30% of the time to the 15 g filament.” left out

[7] abbreviates: rats with vincristine neuropathy, 4 mg/kg i.p. every 2 days for 2 weeks.

As to `CC(=O)[C@H]1CCC2C3CC[C@H]4C[C@H](O)CC[C@]4(C)C3CC(=O)[C@@]21C` (stereo partly drawn) [BR338], in series [1], the “Effect on cell proliferation (neural proliferative effect)” value is given as “++” and the “Effect on the proliferation of human neuroblastomas (in words)” value is “high effectiveness”. Moreover, in series [2], the “Neuroprotective effect against cell death caused by oxidizing stress” value was “+” and the “Protection of human neuroblastomas from cell death caused by H2O2 (in words)” value is “capable of protecting human neuroblastomas from the cell death”. Also, the “Effect on the type A GABA receptor channel or GABAa-R” value in series [3] was “Positive allosteric effect”.
`C=CCO[C@@H]1CC[C@]2(C)C3CC[C@@]4(C)C(CC[C@@H]4C(C)=O)C3CC[C@H]2C1` (stereo partly drawn) [BR351]: in series [1], the “Effect on cell proliferation (neural proliferative effect)” value is given as “+++” and the “Effect on the proliferation of human neuroblastomas (in words)” value is recorded as “very high effectiveness”. Further, in series [2], the “Neuroprotective effect against cell death caused by oxidizing stress” value is “+++” and the “Protection of human neuroblastomas from cell death caused by H2O2 (in words)” value is “capable of protecting human neuroblastomas from the cell death”. In addition, in series [3], the “Time until desensitization of the GABAa-R channel” value stood at 1 min and the “Effect on the type A GABA receptor channel or GABAa-R” value was “only temporarily reproduces the positive allosteric effect; also recorded: Temporary positive allosteric”.
Take `CC(=O)[C@H]1CCC2C3CC[C@H]4C[C@H](O)CC[C@]4(C)C3CC[C@@]21C` (stereo partly drawn) [Allopregnanolone, reference compound]: the “Effect on the type A GABA receptor channel or GABAa-R” value in series [3] is listed as “Positive allosteric effect”; in series [3] (listed as allopregnanolone), “positive allosteric effect”. Moreover, the “Effect on mechanical allodynia and mechanical hyperalgesia” value in the series with Sprague-Dawley rats [4] (setting [7]) is on record as “eliminates the symptoms”. Moreover, the “Effect on thermal allodynia to cold” value with Sprague-Dawley rats [5] (setting [7]) is listed as “eliminates the symptoms”. For the same compound, the “Anti-nociceptive effect in healthy animals” value in the series on Sprague-Dawley rats [6] is reported as “significant anti-nociceptive effect”. Besides, the “Mechanical nociceptive sensitivity threshold after treatment” value in the series with Sprague-Dawley rats [6] (80 g before) was determined as 200 g.
In the case of `CC[C@]1(O)C[C@H]2CN(CCc3c([nH]c4ccccc34)[C@@](C(=O)OC)(c3cc4c(cc3OC)N(C=O)[C@H]3[C@@](O)(C(=O)OC)[C@H](OC(C)=O)[C@]5(CC)C=CCN6CC[C@]43[C@@H]65)C2)C1` [vincristine, Vincristine sulfate], in the series with Sprague-Dawley rats [4] (rats after vincristine 0.1 mg/kg/day i.p., 2 cycles of 5 days, 80 g before treatment), the “Von Frey filament that causes more than 70% of responses” value was 20 g. In addition, the “Responses to the 15 g filament (mechanical hyperalgesia)” value with Sprague-Dawley rats [4] (rats after vincristine chemotherapy, 30% before) is on record as approximately 70%. Also, the “Responses to the 4 g filament (mechanical allodynia)” value in the series with Sprague-Dawley rats [4] (rats after vincristine chemotherapy, no response before treatment) was “more than 30%”. In addition, the “Latency for withdrawal of the foot, acetone test” value in the series on Sprague-Dawley rats [5] (rats after vincristine chemotherapy, 20 seconds before) was 11 s.
